{"source": "patent US20220152060A1", "about": "“PHYTOECDYSONES AND THE DERIVATIVES THEREOF FOR USE IN THE TREATMENT OF IMPAIRED LUNG FUNCTION” (BIOPHYTIS, priority 2019, published 2022)", "key": {"mdx mice [1]": {"system": "mdx mice", "test": "whole-body plethysmography of respiratory function in response to metacholine", "format": "in vivo", "protocol": "Male mice C57BL/10ScSnJ (healthy mice denoted as “C57Black10” in the figures) and C57BL/10ScSn-Dmdmdx/J (murine model of Duchenne muscular dystrophy, denoted “mdx” in the figures) aged 12 weeks, have been used. The mice have been divided into three groups of 12 mice each: an untreated group of healthy control mice C57Black10, a group of untreated mdx mice (mdx) and a group of mice chronically treated with a dose of 50 mg/kg/day, orally in the drinking water. The respiratory function of all the mice has been evaluated by whole-body plethysmography before the start of the study, (D0) then at 30 days (D30) and 60 days (D60) after the start of the treatment. After two months of treatment, the respiratory function has been invasively evaluated, just before sacrifice of the animal, by piston ventilated controlled by a central control unit (commonly called “computer”), said ventilator using the forced oscillation technique, such as the device known by the name FlexiVent™, in order to determine more directly the mechanical parameters of the respiratory system. In order to precisely monitor the change in respiratory function over the course of the treatment, whole-body plethysmography analyses (Emka Technologies, Paris, France) have been performed on the healthy control mice C57Black10, on the untreated mdx mice and on the mdx mice having been treated with BIO101. The advantages of this technique reside in the fact that it allows monitoring to be performed on an awake animal, freely moving in a hermetic enclosure, and that this is performed in a non-invasive manner. Consequently, the stress due to handling of the animals is reduced as it is possible to repeat the measurements over prolonged periods. Barometric plethysmography is therefore frequently used for measuring bronchial reactivity in small animals (Chong et al., 1998; Djuric et al., 1998; Hoffman et al., 1999). The pressure variations measured with respect to a reference chamber make it possible to define various respiratory parameters such as the peaks and times of inspiratory and expiratory pressure as well as a dimensionless quantity called Penh (enhanced Pause) which allows the bronchoconstriction to be evaluated. More specifically, the Penh, calculated from the pressure signal (Pb) in the chamber, is an important index to obtain, because the variations in Penh change in parallel with those of the respiratory resistance and it therefore represents a predictive parameter for changes in the resistive properties of the respiratory system (Hamelmann et al., 1997; Bergren, 2001; Onclinx et al., 2003). The following values have been calculated from the filtered Pb: the maximum variation in Pb during expiration (PEP: Peak Expiratory Pressure), the maximum change in Pb during inspiration (PIP: Peak Inspiratory Pressure) and the time interval (TR). The Penh value has then been calculated as follows: […] [Math. 1] where Pause=(TE−TR)/TE [Math. 2] • TE being the expiration time (Adler et al., 2004). Moreover, the peak inspiratory flow (PIF) and the peak expiratory flow (PEF), the relaxation time (RT) and the respiratory rate (BF) have also been measured and shown. The Penh value has been measured before the start of the treatment (D0), 30 days after the start of the treatment (D30) and 60 days after the treatment (D60). First, the entire cohort of mdx mice (n=24) were compared with healthy mice C57Black10 (n=12), before receiving the treatment. Awake mice were exposed to increasing doses of metacholine aerosols generated by a nebulizer containing 0 to 40 mg/mL of metacholine in PBS."}, "mdx mice [2]": {"system": "mdx mice", "test": "piston ventilator (FlexiVent) forced oscillation measurement of pulmonary resistance, compliance and elastance", "format": "in vivo", "details": "50 mg/kg/day oral", "protocol": "Male mice C57BL/10ScSnJ (healthy mice denoted as “C57Black10” in the figures) and C57BL/10ScSn-Dmdmdx/J (murine model of Duchenne muscular dystrophy, denoted “mdx” in the figures) aged 12 weeks, have been used. The mice have been divided into three groups of 12 mice each: an untreated group of healthy control mice C57Black10, a group of untreated mdx mice (mdx) and a group of mice chronically treated with a dose of 50 mg/kg/day, orally in the drinking water. The respiratory function of all the mice has been evaluated by whole-body plethysmography before the start of the study, (D0) then at 30 days (D30) and 60 days (D60) after the start of the treatment. After two months of treatment, the respiratory function has been invasively evaluated, just before sacrifice of the animal, by piston ventilated controlled by a central control unit (commonly called “computer”), said ventilator using the forced oscillation technique, such as the device known by the name FlexiVent™, in order to determine more directly the mechanical parameters of the respiratory system. In order to determine more directly the mechanical parameters of the respiratory system and the impact of a chronic treatment over a period of two months by BIO101 (D60) on these parameters, the dynamic pulmonary resistance was measured using a piston ventilator system as previously described, in response to increasing doses of metacholine. The mice were anaesthetized and connected by an endotracheal cannula to the piston ventilator system. After the start of mechanical ventilation, each mouse received an intraperitoneal injection of 0.1 mL of a 10 mg/mL rocuronium bromide solution. The animal was ventilated at a respiratory rate of 150 respirations/minute and with a tidal volume of 10 mL/kg against a final positive expiratory pressure of 3 cm H2O. The respiratory mechanisms were evaluated using a forced oscillation maneuver with a duration of 1.2 seconds (2.5 Hz) and a 3-second wideband forced oscillation man oeuvre containing 13 primordial frequencies between 1 and 20.5 Hz. The resistance of the respiratory system (R) was calculated using a microcomputer type central processing unit connected to the piston ventilator system and comprising, in particular, software for performing said calculation. The two maneuvers were carried out alternately every 15 seconds after each nebulization with a metacholine aerosol, in order to measure the change in the response time of the bronchoconstriction induced by metacholine. The pulmonary resistance, compliance and elastance could thus be determined."}}, "data": [{"smiles": "CC(C)(O)CC[C@@H](O)[C@](C)(O)[C@H]1CC[C@@]2(O)C3=CC(=O)[C@@H]4C[C@@H](O)[C@@H](O)C[C@]4(C)[C@H]3CC[C@]12C", "note": "[BIO101, 20-hydroxyecdysone]", "values": [{"measurement": "relaxation time", "setting": "mdx mice [1]; 50 mg/kg/day oral, 30 days, compared with untreated mdx mice, p<0.05 (FIG. 3D)", "value": "clear improvement in relaxation time"}, {"measurement": "peak inspiratory flow (cited to FIG. 3B)", "setting": "mdx mice [1]; 50 mg/kg/day oral, 30 days, in comparison to D0", "value": "remain unchanged"}, {"measurement": "respiratory rate", "setting": "mdx mice [1]; 50 mg/kg/day oral, 30 days, in comparison to D0 (FIG. 3E)", "value": "remain unchanged"}, {"measurement": "peak inspiratory flow (cited to FIG. 3C)", "setting": "mdx mice [1]; 50 mg/kg/day oral, 30 days, in particular equilibrium state or low metacholine dose, p<0.05", "value": "increase in peak inspiratory flow"}, {"measurement": "peak expiratory flow", "setting": "mdx mice [1]; 50 mg/kg/day oral, 60 days", "value": "remain unchanged"}, {"measurement": "relaxation time", "setting": "mdx mice [1]; 50 mg/kg/day oral, 60 days (FIG. 4D)", "value": "trend towards improved relaxation time"}, {"measurement": "respiratory rate", "setting": "mdx mice [1]; 50 mg/kg/day oral, 60 days (FIG. 4E)", "value": "remain unchanged"}, {"measurement": "peak inspiratory flow", "setting": "mdx mice [1]; 50 mg/kg/day oral, 60 days, p<0.05 (FIG. 4B)", "value": "significant improvement"}, {"measurement": "mean Penh value", "setting": "mdx mice [1]; 50 mg/kg/day oral, D60, metacholine dose of 40 mg/mL, untreated mdx 4, healthy 1.04 (FIG. 6B)", "value": 1.87}, {"measurement": "Penh in response to metacholine", "setting": "mdx mice [1]; 50 mg/kg/day oral, after 60 days of treatment, compared to untreated mdx mice, p<0.0001 (FIG. 4A)", "value": "significant reduction in the Penh"}, {"measurement": "Penh in response to metacholine", "setting": "mdx mice [1]; 50 mg/kg/day orally in drinking water, after 30 days of treatment, compared to mdx mice at D0, p<0.001 (FIG. 3A)", "value": "significant reduction in Penh"}, {"measurement": "resistance of the airways (pulmonary resistance)", "setting": "mdx mice [2]; 60 days, metacholine 0 to 20 mg/mL, vs untreated mdx mice, p<0.0001", "value": "significantly lower resistance of the airways"}, {"measurement": "pulmonary compliance", "setting": "mdx mice [2]; D60, metacholine 20 mg/mL, untreated mdx 0.017, healthy 0.031 (FIG. 8B)", "value": 0.029, "unit": "mL/cmH2O"}, {"measurement": "pulmonary elastance", "setting": "mdx mice [2]; D60, metacholine 20 mg/mL, untreated mdx 34.8, healthy 62.8 as printed (FIG. 8C)", "value": 69.1, "unit": "cmH2O/mL"}, {"measurement": "pulmonary compliance, change at increasing metacholine doses", "setting": "mdx mice [2]; two months, p<0.0001 (FIG. 7B)", "value": "significantly improved"}, {"measurement": "pulmonary elastance, change at increasing metacholine doses", "setting": "mdx mice [2]; two months, p<0.0001 (FIG. 7C)", "value": "significantly improved"}]}]}
